Reference: ChEMBL document CHEMBL1201861, “Genomics of Drug Sensitity in Cancer screening data, Wellcome Trust Sanger Institute”

Assays:
Assay in all cases: cells
Type in all cases: functional, cell-based, Homo sapiens
HL-60 = system: HL-60;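 further: growth inhibition of human HL-60 cells, read out with a cell viability assay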
Description: SANGER: Inhibition of human HL-60 cell growth in a cell viability assay.

JEG-3 = system: JEG-3;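 further: growth inhibition of human JEG-3 cells, read out with a cell viability assay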
Description: SANGER: Inhibition of human JEG-3 cell growth in a cell viability assay.

DMS-79 = system: DMS-79;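 further: growth inhibition measured with a cell viability assay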
Description: SANGER: Inhibition of human DMS-79 cell growth in a cell viability assay.

NCI-H520 = system: NCI-H520;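 further: growth inhibition of NCI-H520 cells, measured by a cell viability assay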
Description: SANGER: Inhibition of human NCI-H520 cell growth in a cell viability assay.

S-117 = system: S-117
Description: SANGER: Inhibition of human S-117 cell growth in a cell viability assay.

SNU-387 = system: SNU-387
Description: SANGER: Inhibition of human SNU-387 cell growth in a cell viability assay.

EFO-27 = system: EFO-27;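 further: growth inhibition of EFO-27 cells, read out with a cell viability assay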
Description: SANGER: Inhibition of human EFO-27 cell growth in a cell viability assay.

ES1 = system: ES1;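 further: growth inhibition of ES1 cells, read out with a cell viability assay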
Description: SANGER: Inhibition of human ES1 cell growth in a cell viability assay.

MEL-HO = system: MEL-HO
Description: SANGER: Inhibition of human MEL-HO cell growth in a cell viability assay.

SW48 = system: SW48;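 further: growth inhibition of SW48 cells, read out with a cell viability assay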
Description: SANGER: Inhibition of human SW48 cell growth in a cell viability assay.

VM-CUB-1 = system: VM-CUB-1;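 further: cell viability assay measuring growth inhibition of the human VM-CUB-1 cell line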
Description: SANGER: Inhibition of human VM-CUB-1 cell growth in a cell viability assay.

CAL-120 = system: CAL-120;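 further: cell growth inhibition, read out as cell viability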
Description: SANGER: Inhibition of human CAL-120 cell growth in a cell viability assay.

SF-295 = system: SF-295;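 further: growth inhibition of SF-295 cells, read out with a cell viability assay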
Description: SANGER: Inhibition of human SF295 cell growth in a cell viability assay.

DU-4475 = system: DU-4475
Description: SANGER: Inhibition of human DU-4475 cell growth in a cell viability assay.

BHT-101 = system: BHT-101
Description: SANGER: Inhibition of human BHT-101 cell growth in a cell viability assay.

RPMI-8226 = system: RPMI-8226
Description: SANGER: Inhibition of human RPMI-8226 cell growth in a cell viability assay.

HOS = system: HOS;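 further: growth inhibition of human HOS cells, read out with a cell viability assay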
Description: SANGER: Inhibition of human HOS cell growth in a cell viability assay.

MZ1-PC = system: MZ1-PC;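 further: cell viability assay measuring growth inhibition of human MZ1-PC cells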
Description: SANGER: Inhibition of human MZ1-PC cell growth in a cell viability assay.

NB6 = system: NB6;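 further: growth inhibition of NB6 cells, read out by a cell viability assay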
Description: SANGER: Inhibition of human NB6 cell growth in a cell viability assay.

NCI-H1755 = system: NCI-H1755;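 further: cell viability readout used to measure growth inhibition of NCI-H1755 cells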
Description: SANGER: Inhibition of human NCI-H1755 cell growth in a cell viability assay.

MDA-MB-231 = system: MDA-MB-231
Description: SANGER: Inhibition of human MDA-MB-231 cell growth in a cell viability assay.

HCC38 = system: HCC38;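 further: cell viability assay on the human HCC38 cell line, with IC50 marking the concentration that inhibits cell growth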
Description: SANGER: Inhibition of human HCC38 cell growth in a cell viability assay.

MKN-1 = system: MKN-1;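 further: growth inhibition of human MKN1 cells, read out by a cell viability measurement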
Description: SANGER: Inhibition of human MKN1 cell growth in a cell viability assay.

CP66-MEL = system: CP66-MEL;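 further: growth inhibition of CP66-MEL cells determined in a cell viability assay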
Description: SANGER: Inhibition of human CP66-MEL cell growth in a cell viability assay.

Ca-Ski = system: Ca-Ski;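 further: cell viability assay measuring inhibition of Ca-Ski cell growth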
Description: SANGER: Inhibition of human Ca-Ski cell growth in a cell viability assay.

HCC2218 = system: HCC2218;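 further: cell viability assay read-out, with IC50 given as the concentration that inhibits growth of the cell line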
Description: SANGER: Inhibition of human HCC2218 cell growth in a cell viability assay.

647-V = system: 647-V;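 further: growth inhibition of 647-V cells, read out with a cell viability assay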
Description: SANGER: Inhibition of human 647-V cell growth in a cell viability assay.

NCI-H2087 = system: NCI-H2087;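 further: growth inhibition determined with a cell viability readout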
Description: SANGER: Inhibition of human NCI-H2087 cell growth in a cell viability assay.

KYSE-180 = system: KYSE-180;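 further: growth inhibition of KYSE-180 cells, read out with a cell viability assay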
Description: SANGER: Inhibition of human KYSE-180 cell growth in a cell viability assay.

Lu-65 = system: Lu-65;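 further: growth inhibition of Lu-65 cancer cells, read out by a cell viability assay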
Description: SANGER: Inhibition of human LU-65 cell growth in a cell viability assay.

LAMA-84 = system: LAMA-84;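 further: growth inhibition of LAMA-84 cells, read out with a cell viability assay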
Description: SANGER: Inhibition of human LAMA-84 cell growth in a cell viability assay.

ES3 = system: ES3;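 further: growth inhibition of ES3 cells, read out with a cell viability assay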
Description: SANGER: Inhibition of human ES3 cell growth in a cell viability assay.

RO82-W-1 = system: RO82-W-1;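 further: growth inhibition of human RO82-W-1 cells, measured with a cell viability assay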
Description: SANGER: Inhibition of human RO82-W-1 cell growth in a cell viability assay.

COLO-824 = system: COLO-824
Description: SANGER: Inhibition of human COLO-824 cell growth in a cell viability assay.

C2BBe1 = system: C2BBe1;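 further: growth inhibition of C2BBe1 cells, read out through a viability assay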
Description: SANGER: Inhibition of human C2BBe1 cell growth in a cell viability assay.

NB69 = system: NB69;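 further: growth inhibition of NB69 cells, determined by a cell viability assay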
Description: SANGER: Inhibition of human NB69 cell growth in a cell viability assay.

G-401 = system: G-401
Description: SANGER: Inhibition of human G-401 cell growth in a cell viability assay.

RD = system: RD
Description: SANGER: Inhibition of human RD cell growth in a cell viability assay.

SW-620 = system: SW-620;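 further: growth inhibition of human SW-620 cells, measured by a cell viability assay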
Description: SANGER: Inhibition of human SW620 cell growth in a cell viability assay.

PFSK-1 = system: PFSK-1;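 further: cell viability assay measuring how strongly compounds suppress growth of human PFSK-1 cells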
Description: SANGER: Inhibition of human PFSK-1 cell growth in a cell viability assay.

SH-4 = system: SH-4;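 further: growth inhibition of SH-4 cells, read out with a cell viability assay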
Description: SANGER: Inhibition of human SH-4 cell growth in a cell viability assay.

CO[C@H]1C[C@@H]2CC[C@@H](C)[C@@](O)(O2)C(=O)C(=O)N2CCCC[C@H]2C(=O)O[C@H]([C@H](C)C[C@@H]2CC[C@@H](OC(=O)C(C)(CO)CO)[C@H](OC)C2)CC(=O)[C@H](C)/C=C(\C)[C@@H](O)[C@@H](OC)C(=O)[C@H](C)C[C@H](C)/C=C/C=C/C=C/1C [TEMSIROLIMUS]
IC50 (HL-60; Homo sapiens, HL-60): > 0.2 µM | IC50 (JEG-3; Homo sapiens, JEG-3): > 0.2 µM | IC50 (DMS-79; Homo sapiens, DMS-79): > 0.2 µM | IC50 (NCI-H520; Homo sapiens, NCI-H520): > 0.2 µM | IC50 (S-117; Homo sapiens, S-117): 0.105 µM | IC50 (SNU-387; Homo sapiens, SNU-387): 0.175 µM | IC50 (EFO-27; Homo sapiens, EFO-27): 0.0331 µM | IC50 (ES1; Homo sapiens, ES1): 0.0245 µM | IC50 (MEL-HO; Homo sapiens, MEL-HO): 0.0336 µM | IC50 (SW48; Homo sapiens, SW48): > 0.2 µM | IC50 (VM-CUB-1; Homo sapiens, VM-CUB-1): 0.0127 µM | IC50 (CAL-120; Homo sapiens, CAL-120): > 0.2 µM | IC50 (SF-295; Homo sapiens, SF-295): 0.0605 µM | IC50 (DU-4475; Homo sapiens, DU-4475): 0.0117 µM | IC50 (BHT-101; Homo sapiens, BHT-101): 0.197 µM | IC50 (RPMI-8226; Homo sapiens, RPMI-8226): 0.00415 µM | IC50 (HOS; Homo sapiens, HOS): 0.145 µM | IC50 (MZ1-PC; Homo sapiens, MZ1-PC): > 0.2 µM | IC50 (NB6; Homo sapiens, NB6): > 0.2 µM | IC50 (NCI-H1755; Homo sapiens, NCI-H1755): > 0.2 µM | IC50 (MDA-MB-231; Homo sapiens, MDA-MB-231): > 0.2 µM | IC50 (HCC38; Homo sapiens, HCC38): > 0.2 µM | IC50 (MKN-1; Homo sapiens, MKN-1): > 0.2 µM | IC50 (CP66-MEL; Homo sapiens, CP66-MEL): > 0.2 µM | IC50 (Ca-Ski; Homo sapiens, Ca-Ski): > 0.2 µM | IC50 (HCC2218; Homo sapiens, HCC2218): > 0.2 µM | IC50 (647-V; Homo sapiens, 647-V): > 0.2 µM | IC50 (NCI-H2087; Homo sapiens, NCI-H2087): > 0.2 µM | IC50 (KYSE-180; Homo sapiens, KYSE-180): > 0.2 µM | IC50 (Lu-65; Homo sapiens, Lu-65): > 0.2 µM | IC50 (LAMA-84; Homo sapiens, LAMA-84): 0.00403 µM | IC50 (ES3; Homo sapiens, ES3): 0.0851 µM | IC50 (RO82-W-1; Homo sapiens, RO82-W-1): > 0.2 µM | IC50 (COLO-824; Homo sapiens, COLO-824): > 0.2 µM | IC50 (C2BBe1; Homo sapiens, C2BBe1): > 0.2 µM | IC50 (NB69; Homo sapiens, NB69): 0.00946 µM | IC50 (G-401; Homo sapiens, G-401): 0.089 µM | IC50 (RD; Homo sapiens, RD): 0.144 µM | IC50 (SW-620; Homo sapiens, SW-620): 0.106 µM | IC50 (PFSK-1; Homo sapiens, PFSK-1): 0.0277 µM | IC50 (SH-4; Homo sapiens, SH-4): > 0.2 µM

Nc1cccc2c1CN(C1CCC(=O)NC1=O)C2=O (centres undefined) [LENALIDOMIDE]
IC50 (HL-60; Homo sapiens, HL-60): > 5 µM | IC50 (JEG-3; Homo sapiens, JEG-3): > 5 µM | IC50 (DMS-79; Homo sapiens, DMS-79): > 5 µM | IC50 (NCI-H520; Homo sapiens, NCI-H520): > 5 µM | IC50 (S-117; Homo sapiens, S-117): > 5 µM | IC50 (SNU-387; Homo sapiens, SNU-387): > 5 µM | IC50 (EFO-27; Homo sapiens, EFO-27): > 5 µM | IC50 (ES1; Homo sapiens, ES1): > 5 µM | IC50 (MEL-HO; Homo sapiens, MEL-HO): > 5 µM | IC50 (SW48; Homo sapiens, SW48): > 5 µM | IC50 (VM-CUB-1; Homo sapiens, VM-CUB-1): > 5 µM | IC50 (CAL-120; Homo sapiens, CAL-120): > 5 µM | IC50 (SF-295; Homo sapiens, SF-295): > 5 µM | IC50 (DU-4475; Homo sapiens, DU-4475): > 5 µM | IC50 (BHT-101; Homo sapiens, BHT-101): > 5 µM | IC50 (RPMI-8226; Homo sapiens, RPMI-8226): > 5 µM | IC50 (HOS; Homo sapiens, HOS): > 5 µM | IC50 (MZ1-PC; Homo sapiens, MZ1-PC): > 5 µM | IC50 (NB6; Homo sapiens, NB6): > 5 µM | IC50 (NCI-H1755; Homo sapiens, NCI-H1755): > 5 µM | IC50 (MDA-MB-231; Homo sapiens, MDA-MB-231): > 5 µM | IC50 (HCC38; Homo sapiens, HCC38): > 5 µM | IC50 (MKN-1; Homo sapiens, MKN-1): > 5 µM | IC50 (CP66-MEL; Homo sapiens, CP66-MEL): > 5 µM | IC50 (Ca-Ski; Homo sapiens, Ca-Ski): > 5 µM | IC50 (HCC2218; Homo sapiens, HCC2218): > 5 µM | IC50 (647-V; Homo sapiens, 647-V): > 5 µM | IC50 (NCI-H2087; Homo sapiens, NCI-H2087): > 5 µM | IC50 (KYSE-180; Homo sapiens, KYSE-180): > 5 µM | IC50 (Lu-65; Homo sapiens, Lu-65): > 5 µM | IC50 (LAMA-84; Homo sapiens, LAMA-84): > 5 µM | IC50 (ES3; Homo sapiens, ES3): > 5 µM | IC50 (RO82-W-1; Homo sapiens, RO82-W-1): > 5 µM | IC50 (COLO-824; Homo sapiens, COLO-824): > 5 µM | IC50 (C2BBe1; Homo sapiens, C2BBe1): > 5 µM | IC50 (NB69; Homo sapiens, NB69): > 5 µM | IC50 (G-401; Homo sapiens, G-401): > 5 µM | IC50 (RD; Homo sapiens, RD): > 5 µM | IC50 (SW-620; Homo sapiens, SW-620): > 5 µM | IC50 (PFSK-1; Homo sapiens, PFSK-1): > 5 µM | IC50 (SH-4; Homo sapiens, SH-4): > 5 µM

Cc1cn(-c2cc(NC(=O)c3ccc(C)c(Nc4nccc(-c5cccnc5)n4)c3)cc(C(F)(F)F)c2)cn1 [NILOTINIB]
IC50 (HL-60; Homo sapiens, HL-60): > 2 µM | IC50 (JEG-3; Homo sapiens, JEG-3): > 2 µM | IC50 (DMS-79; Homo sapiens, DMS-79): > 2 µM | IC50 (NCI-H520; Homo sapiens, NCI-H520): > 2 µM | IC50 (S-117; Homo sapiens, S-117): > 2 µM | IC50 (SNU-387; Homo sapiens, SNU-387): > 2 µM | IC50 (EFO-27; Homo sapiens, EFO-27): > 2 µM | IC50 (ES1; Homo sapiens, ES1): > 2 µM | IC50 (MEL-HO; Homo sapiens, MEL-HO): > 2 µM | IC50 (SW48; Homo sapiens, SW48): > 2 µM | IC50 (VM-CUB-1; Homo sapiens, VM-CUB-1): > 2 µM | IC50 (CAL-120; Homo sapiens, CAL-120): > 2 µM | IC50 (SF-295; Homo sapiens, SF-295): > 2 µM | IC50 (DU-4475; Homo sapiens, DU-4475): > 2 µM | IC50 (BHT-101; Homo sapiens, BHT-101): 0.643 µM | IC50 (RPMI-8226; Homo sapiens, RPMI-8226): > 2 µM | IC50 (HOS; Homo sapiens, HOS): > 2 µM | IC50 (MZ1-PC; Homo sapiens, MZ1-PC): > 2 µM | IC50 (NB6; Homo sapiens, NB6): > 2 µM | IC50 (NCI-H1755; Homo sapiens, NCI-H1755): > 2 µM | IC50 (MDA-MB-231; Homo sapiens, MDA-MB-231): > 2 µM | IC50 (HCC38; Homo sapiens, HCC38): > 2 µM | IC50 (MKN-1; Homo sapiens, MKN-1): > 2 µM | IC50 (CP66-MEL; Homo sapiens, CP66-MEL): > 2 µM | IC50 (Ca-Ski; Homo sapiens, Ca-Ski): > 2 µM | IC50 (HCC2218; Homo sapiens, HCC2218): > 2 µM | IC50 (647-V; Homo sapiens, 647-V): > 2 µM | IC50 (NCI-H2087; Homo sapiens, NCI-H2087): > 2 µM | IC50 (KYSE-180; Homo sapiens, KYSE-180): > 2 µM | IC50 (Lu-65; Homo sapiens, Lu-65): > 2 µM | IC50 (LAMA-84; Homo sapiens, LAMA-84): 0.0049 µM | IC50 (ES3; Homo sapiens, ES3): > 2 µM | IC50 (RO82-W-1; Homo sapiens, RO82-W-1): > 2 µM | IC50 (COLO-824; Homo sapiens, COLO-824): > 2 µM | IC50 (C2BBe1; Homo sapiens, C2BBe1): > 2 µM | IC50 (NB69; Homo sapiens, NB69): > 2 µM | IC50 (G-401; Homo sapiens, G-401): > 2 µM | IC50 (RD; Homo sapiens, RD): > 2 µM | IC50 (SW-620; Homo sapiens, SW-620): > 2 µM | IC50 (PFSK-1; Homo sapiens, PFSK-1): > 2 µM | IC50 (SH-4; Homo sapiens, SH-4): > 2 µM

CISPLATIN
IC50 (HL-60; hl-60): 8.69 µM | IC50 (JEG-3; jeg-3): 10.3 µM | IC50 (DMS-79; dms-79): 24.4 µM | IC50 (NCI-H520; nci-h520): 72.8 µM | IC50 (S-117; s-117): 4.53 µM | IC50 (SNU-387; snu-387): 26.1 µM | IC50 (EFO-27; efo-27): 13.2 µM | IC50 (ES1; es1): 1.02 µM | IC50 (MEL-HO; mel-ho): 1.07 µM | IC50 (SW48; sw48): 9.22 µM | IC50 (VM-CUB-1; vm-cub-1): 6.3 µM | IC50 (CAL-120; cal-120): 264 µM | IC50 (SF-295; sf-295): 9.34 µM | IC50 (DU-4475; du-4475): 111 µM | IC50 (BHT-101; bht-101): 5.82 µM | IC50 (RPMI-8226; rpmi-8226): 192 µM | IC50 (HOS; hos): 2.56 µM | IC50 (MZ1-PC; mz1-pc): 29.9 µM | IC50 (NB6; nb6): 318 µM | IC50 (NCI-H1755; nci-h1755): 207 µM | IC50 (MDA-MB-231; mda-mb-231): 264 µM | IC50 (HCC38; hcc38): 160 µM | IC50 (MKN-1; mkn-1): 42.1 µM | IC50 (CP66-MEL; cp66-mel): 32 µM | IC50 (Ca-Ski; ca-ski): 10.3 µM | IC50 (HCC2218; hcc2218): 398 µM | IC50 (647-V; 647-v): 114 µM | IC50 (NCI-H2087; nci-h2087): 14.5 µM | IC50 (KYSE-180; kyse-180): 5.82 µM | IC50 (Lu-65; lu-65): 559 µM | IC50 (LAMA-84; lama-84): 10.8 µM | IC50 (ES3; es3): 0.863 µM | IC50 (RO82-W-1; ro82-w-1): 72.1 µM | IC50 (COLO-824; colo-824): 114 µM | IC50 (C2BBe1; c2bbe1): 97 µM | IC50 (NB69; nb69): 52.1 µM | IC50 (G-401; g-401): 7.25 µM | IC50 (RD; rd): 14.6 µM | IC50 (SW-620; sw-620): 160 µM | IC50 (PFSK-1; pfsk-1): 37.7 µM | IC50 (SH-4; sh-4): 68.7 µM
